In series [1] the target is T1, Solute carrier family 22 member 11 (Homo sapiens, UniProt Q9NSA0).
T1 sequence (Q9NSA0 whole entry): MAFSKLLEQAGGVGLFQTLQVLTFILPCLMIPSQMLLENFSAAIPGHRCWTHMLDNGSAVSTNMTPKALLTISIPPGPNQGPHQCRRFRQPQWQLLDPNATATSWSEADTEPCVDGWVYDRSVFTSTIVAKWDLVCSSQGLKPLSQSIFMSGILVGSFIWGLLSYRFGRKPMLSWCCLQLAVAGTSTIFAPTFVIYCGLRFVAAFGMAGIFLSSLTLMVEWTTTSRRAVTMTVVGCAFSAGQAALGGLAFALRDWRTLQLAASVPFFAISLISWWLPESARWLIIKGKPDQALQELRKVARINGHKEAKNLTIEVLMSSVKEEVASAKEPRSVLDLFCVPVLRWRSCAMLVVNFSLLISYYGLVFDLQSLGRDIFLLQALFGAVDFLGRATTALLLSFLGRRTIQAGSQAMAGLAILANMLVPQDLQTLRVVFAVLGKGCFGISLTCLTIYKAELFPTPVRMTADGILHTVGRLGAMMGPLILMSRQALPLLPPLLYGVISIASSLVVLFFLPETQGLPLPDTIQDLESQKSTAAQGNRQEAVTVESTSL
Put plainly: Inhibition of OAT4 (unknown origin).

Series [2] is described as follows: Mutagenicity in […] by Ames test in presence of […]. It is filed as toxicity. Background: In the Ames test, an excess of revertant colonies over the control signals mutagenicity.
Series [3] is described as follows: Fraction unbound in rat plasma. It is filed as ADME, cell-free.
The nature of series [4]: Dissociation constant, pKa of the compound. It is filed as physicochemical.
Series [5] is described as follows: Intrinsic clearance in human liver microsomes. It is filed as ADME. Particulars: read-out: CLH.
The nature of series [6]: Permeability in RRCK cells. In kind it is ADME, cell-based, Canis lupus familiaris, MDCKII-LE. Particulars: dog, MDCK; read-out: permeability.
The nature of series [7]: Mutagenicity in […] by Ames test in absence of […]. It is filed as toxicity.
The next series relates to Rattus norvegicus. Put plainly: Toxicity in po dosed Wistar Han rat assessed as drug tolerance administered for 14 days. Conditions: in vivo, 336 h. It is filed as organism-based.
The target of series [8] is T2, Solute carrier organic anion transporter family member 2B1 (Homo sapiens, UniProt O94956).
T2 sequence (O94956 whole entry): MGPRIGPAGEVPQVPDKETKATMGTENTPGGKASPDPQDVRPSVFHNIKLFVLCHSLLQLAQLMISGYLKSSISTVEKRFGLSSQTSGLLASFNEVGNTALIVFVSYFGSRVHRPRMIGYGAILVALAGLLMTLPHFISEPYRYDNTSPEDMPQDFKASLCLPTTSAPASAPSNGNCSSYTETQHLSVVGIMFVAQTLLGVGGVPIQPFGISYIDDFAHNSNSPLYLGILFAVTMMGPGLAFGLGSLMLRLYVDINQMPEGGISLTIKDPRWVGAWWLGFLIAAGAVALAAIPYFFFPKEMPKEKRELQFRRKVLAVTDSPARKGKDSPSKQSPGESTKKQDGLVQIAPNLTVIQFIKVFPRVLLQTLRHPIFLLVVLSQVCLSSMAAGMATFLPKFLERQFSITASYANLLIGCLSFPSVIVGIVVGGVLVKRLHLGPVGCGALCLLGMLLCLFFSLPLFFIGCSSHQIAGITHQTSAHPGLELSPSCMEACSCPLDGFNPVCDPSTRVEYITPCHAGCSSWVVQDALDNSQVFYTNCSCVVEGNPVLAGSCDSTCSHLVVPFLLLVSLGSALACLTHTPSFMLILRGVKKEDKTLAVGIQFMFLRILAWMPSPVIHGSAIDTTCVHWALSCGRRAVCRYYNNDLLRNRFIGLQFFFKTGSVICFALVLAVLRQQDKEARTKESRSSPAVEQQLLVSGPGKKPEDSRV
Put plainly: Drug uptake assessed as human OATP2B1-mediated drug accumulation by cell-based assay relative to wild type protein. In kind it is ADME.

A short description of series [9]: Renal clearance in dog at 1 mg/kg, iv and 3 mg/kg, po relative to GFR x fraction unbound. In kind it is ADME, organism-based, Canis lupus familiaris. Particulars: in vivo.
Series [10] is described as follows: Cytotoxicity against THLE cells. It is filed as toxicity, cell-based. Conditions: human.
The nature of series [11]: Intrinsic clearance in human hepatocytes assessed per 10^6 cells. It is filed as ADME, cell-based, Hepatocyte.
A short description of series [12]: Half life in rat at 1 mg/kg, iv and 3 mg/kg, po. It is filed as ADME, organism-based. Conditions: in vivo.
The target of series [13] is T3, Solute carrier family 22 member 12 (Homo sapiens, UniProt Q96S37).
T3 sequence (Q96S37 whole entry): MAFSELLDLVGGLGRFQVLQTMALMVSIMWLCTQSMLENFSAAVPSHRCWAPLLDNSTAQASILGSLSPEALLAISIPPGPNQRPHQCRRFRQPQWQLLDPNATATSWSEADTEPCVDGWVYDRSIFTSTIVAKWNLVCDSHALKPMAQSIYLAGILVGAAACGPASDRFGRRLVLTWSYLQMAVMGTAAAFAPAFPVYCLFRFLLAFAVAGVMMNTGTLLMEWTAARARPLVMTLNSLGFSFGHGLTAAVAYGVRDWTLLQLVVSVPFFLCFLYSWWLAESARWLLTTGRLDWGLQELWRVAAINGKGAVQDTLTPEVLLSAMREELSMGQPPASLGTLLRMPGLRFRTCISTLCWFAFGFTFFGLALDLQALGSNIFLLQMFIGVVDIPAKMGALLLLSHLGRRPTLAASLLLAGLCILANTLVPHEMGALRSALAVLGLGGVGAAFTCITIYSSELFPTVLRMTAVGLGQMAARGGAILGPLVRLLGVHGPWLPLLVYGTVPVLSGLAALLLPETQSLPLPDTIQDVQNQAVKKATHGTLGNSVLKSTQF
Put plainly: Inhibition of human C-terminal eGFP-tagged URAT1 long isoform expressed in CHO cells assessed as decrease in [14C]-uric acid uptake preincubated for 15 mins followed by [14C]-uric acid addition and incubated in dark for 3 hrs by scintillation counting method. In kind it is cell-based.

The target of series [14] is Sodium channel protein type 5 subunit alpha (Homo sapiens, UniProt Q14524). Nature of the series: Inhibition of human NaV1.5 expressed in HEK293 cells by patch clamp method. In kind it is cell-based.
The nature of series [15]: Renal clearance in rat at 1 mg/kg, iv and 3 mg/kg, po relative to GFR x fraction unbound. It is filed as ADME, organism-based. Particulars: in vivo.

A value given as a limit tells only on which side of the number the result lay.

One may read the IC50 as the concentration needed to halve the response being measured. Usually fraction unbound stands for free concentration divided by total concentration. Read a high fraction unbound as weak binding. In general, pKa refers to the negative logarithm of the acid dissociation constant. Read a high pKa as a group that holds its proton tightly. By half-life is commonly meant how long it takes for the measured level to halve. Lower therefore signals fast loss.

Chain of Sodium channel protein type 5 subunit alpha (Q14524 whole entry): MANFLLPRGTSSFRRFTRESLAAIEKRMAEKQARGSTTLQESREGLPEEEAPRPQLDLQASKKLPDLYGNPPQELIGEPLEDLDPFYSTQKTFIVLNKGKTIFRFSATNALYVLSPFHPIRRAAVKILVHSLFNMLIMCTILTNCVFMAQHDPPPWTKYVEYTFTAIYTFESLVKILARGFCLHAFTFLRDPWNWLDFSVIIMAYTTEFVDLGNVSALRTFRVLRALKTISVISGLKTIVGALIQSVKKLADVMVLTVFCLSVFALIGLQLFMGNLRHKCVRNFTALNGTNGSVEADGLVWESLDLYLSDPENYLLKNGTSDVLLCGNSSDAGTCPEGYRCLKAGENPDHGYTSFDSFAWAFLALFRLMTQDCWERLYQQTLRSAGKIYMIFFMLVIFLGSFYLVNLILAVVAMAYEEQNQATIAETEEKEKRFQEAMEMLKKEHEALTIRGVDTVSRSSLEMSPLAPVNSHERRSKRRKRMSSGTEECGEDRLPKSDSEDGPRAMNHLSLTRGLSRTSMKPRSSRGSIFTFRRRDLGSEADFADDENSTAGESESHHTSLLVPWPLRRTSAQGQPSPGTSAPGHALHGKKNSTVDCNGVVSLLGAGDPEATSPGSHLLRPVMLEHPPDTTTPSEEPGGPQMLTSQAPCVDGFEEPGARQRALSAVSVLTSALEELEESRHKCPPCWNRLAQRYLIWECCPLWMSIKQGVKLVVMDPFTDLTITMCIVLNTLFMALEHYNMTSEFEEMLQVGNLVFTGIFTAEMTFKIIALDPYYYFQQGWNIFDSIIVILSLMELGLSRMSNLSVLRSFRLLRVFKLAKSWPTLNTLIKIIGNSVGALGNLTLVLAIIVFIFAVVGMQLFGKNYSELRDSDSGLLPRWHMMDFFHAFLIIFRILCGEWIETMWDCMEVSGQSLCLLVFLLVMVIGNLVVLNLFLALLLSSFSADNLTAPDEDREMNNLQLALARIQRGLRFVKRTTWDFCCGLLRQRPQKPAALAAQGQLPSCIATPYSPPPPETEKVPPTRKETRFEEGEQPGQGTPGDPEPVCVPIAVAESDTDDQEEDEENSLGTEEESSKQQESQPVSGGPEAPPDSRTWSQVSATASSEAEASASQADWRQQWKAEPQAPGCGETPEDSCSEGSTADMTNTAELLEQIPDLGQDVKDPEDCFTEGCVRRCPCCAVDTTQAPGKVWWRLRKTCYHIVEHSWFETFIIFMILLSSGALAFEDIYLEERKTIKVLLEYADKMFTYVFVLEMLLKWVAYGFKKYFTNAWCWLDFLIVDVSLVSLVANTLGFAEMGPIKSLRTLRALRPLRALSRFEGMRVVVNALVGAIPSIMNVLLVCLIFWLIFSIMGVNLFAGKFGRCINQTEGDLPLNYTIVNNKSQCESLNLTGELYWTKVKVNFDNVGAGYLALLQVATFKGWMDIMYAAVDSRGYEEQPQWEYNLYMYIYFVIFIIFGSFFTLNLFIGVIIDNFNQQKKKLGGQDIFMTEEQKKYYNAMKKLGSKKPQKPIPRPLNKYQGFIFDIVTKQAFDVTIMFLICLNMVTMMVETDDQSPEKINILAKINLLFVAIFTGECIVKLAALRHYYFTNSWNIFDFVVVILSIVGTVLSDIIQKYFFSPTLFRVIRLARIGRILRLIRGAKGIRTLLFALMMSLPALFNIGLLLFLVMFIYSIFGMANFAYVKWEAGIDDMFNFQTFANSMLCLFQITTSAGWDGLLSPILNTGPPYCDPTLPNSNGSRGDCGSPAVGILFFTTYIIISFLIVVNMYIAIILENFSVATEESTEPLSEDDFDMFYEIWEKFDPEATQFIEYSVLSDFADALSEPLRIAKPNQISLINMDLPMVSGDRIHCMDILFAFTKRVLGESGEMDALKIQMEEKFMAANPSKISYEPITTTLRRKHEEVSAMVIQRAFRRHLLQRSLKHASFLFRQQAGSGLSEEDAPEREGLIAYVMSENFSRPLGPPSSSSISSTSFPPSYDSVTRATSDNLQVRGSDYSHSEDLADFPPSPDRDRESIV

In the case of `O=S(=O)(Nc1ccc(C(F)(F)F)nc1)c1ccccc1C(F)(F)F`, the IC50 was 9.4 µM in series [1], 0.042 µM in [13] and greater than 100 µM in [14]. In addition, the Activity result in series [2] was “Non-Toxic”; in series [7] it was “Non-Toxic”; in the series with Rattus norvegicus it was “<= 100 mg kg-1”; in series [10], 153 µM. The fraction unbound in series [3] is 0.0045. This compound also displayed a pKa in series [4] of 5.1. Moreover, in series [5], the microsomal CLint was less than 8 µL/min/mg. The Papp in series [6] turned out to be 27 ×10⁻⁶ cm/s. In series [8], the “fold change (FC)” value worked out at 1.145. Moreover, the CL in series [9] and in series [15] was less than 2% throughout. In addition, the CLH in series [11] was less than 6 µL/min/1e6 cells. The same compound gave a half-life in [12] of 27.3 h.

Take `O=S(=O)(Nc1cncc(C(F)(F)F)c1)c1ccccc1C(F)(F)F`: the results for the IC50 in series [1], in [13] and in series [14] were 8.5 µM, 0.036 µM and greater than 30 µM, respectively. In addition, the Activity entry is “Non-Toxic” in series [2], “Non-Toxic” in series [7], “<= 100 mg/kg/day” with Rattus norvegicus and 228 µM in series [10]. This compound displayed a fraction unbound in [3] of 0.0017. This compound registered a pKa in series [4] of 5.2. Besides, the microsomal CLint in series [5] turned out to be 11 µL/min/mg. In addition, the Papp in series [6] was 21 ×10⁻⁶ cm/s. The “fold change (FC)” value in [8] was 0.961. The CL in series [9] and in [15] was less than 2% each time. In addition, in [11], the CLH turned out to be 6 µL/min/1e6 cells. Besides, the half-life in series [12] is 3.3 h.

(Values after ChEMBL document CHEMBL3853265 (Medchemcomm, 2016).)
